Assays:
Carboplatin = compound: C1CC(C1)(C(=O)[O-])C(=O)[O-].N.N.[Pt+2] [Carboplatin]; details: max 10 µM
How it was run: (§1)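 Plates with 1536 wells received cancer cell lines in 7.5 μl of DMEM/F12 or RPMI containing 10% FBS. After 24 hours at 37°C and 5% CO2, cells were dosed for 72 hours with final DMSO typically 0.2%, and viability was read by CellTiter-Glo 2.0 luminescence scaled between blank-well and DMSO-well means. The single-agent IC50 was taken from a logistic fit of the dose responses made with a non-linear mixed effects model, that logistic curve having two parameters.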

AZD5363 = compound: C1CN(CCC1(C(=O)N[C@@H](CCO)C2=CC=C(C=C2)Cl)N)C3=NC=NC4=C3C=CN4 [AZD5363]; details: max 10 µM
How it was run: as §1

AZD1775 = compound: C=CCn1c(=O)c2cnc(Nc3ccc(N4CCN(C)CC4)cc3)nc2n1-c1cccc(C(C)(C)O)n1 [AZD1775]; details: max 3 µM
How it was run: as §1

Trametinib = compound: CC(=O)Nc1cccc(-n2c(=O)n(C3CC3)c(=O)c3c(Nc4ccc(I)cc4F)n(C)c(=O)c(C)c32)c1 [Trametinib]; details: max 1 µM
How it was run: as §1

Paclitaxel = compound: CC(=O)O[C@H]1C(=O)[C@@]2(C)[C@H]([C@H](OC(=O)c3ccccc3)[C@]3(O)C[C@H](OC(=O)[C@H](O)[C@@H](NC(=O)c4ccccc4)c4ccccc4)C(C)=C1C3(C)C)[C@]1(OC(C)=O)CO[C@@H]1C[C@@H]2O [Paclitaxel]; details: max 3 µM
How it was run: as §1

Palbociclib = compound: CC(=O)c1c(C)c2cnc(Nc3ccc(N4CCNCC4)cn3)nc2n(C2CCCC2)c1=O [Palbociclib]; details: max 10 µM
How it was run: as §1

AZD1390 = compound: CC(C)n1c(=O)n(C)c2cnc3cc(F)c(-c4ccc(OCCCN5CCCCC5)nc4)cc3c21 [AZD1390]; details: max 0.3 µM
How it was run: as §1

Venetoclax = compound: CC1(C)CCC(CN2CCN(c3ccc(C(=O)NS(=O)(=O)c4ccc(NCC5CCOCC5)c([N+](=O)[O-])c4)c(Oc4cnc5[nH]ccc5c4)c3)CC2)=C(c2ccc(Cl)cc2)C1 [Venetoclax]; details: max 1 µM
How it was run: as §1

Dasatinib = compound: CC1=C(C(=CC=C1)Cl)NC(=O)C2=CN=C(S2)NC3=CC(=NC(=N3)C)N4CCN(CC4)CCO [Dasatinib]; details: max 2 µM
How it was run: as §1

SG3199 = compound: CC1=CN2[C@@H](C1)C=NC3=CC(=C(C=C3C2=O)OC)OCCCCCOC4=C(C=C5C(=C4)N=C[C@@H]6CC(=CN6C5=O)C)OC [SG3199]; details: max 0.001 µM
How it was run: as §1

AZD2811 = compound: CCN(CCO)CCCOc1ccc2c(Nc3cc(CC(=O)Nc4cccc(F)c4)[nH]n3)ncnc2c1 [AZD2811]; details: max 1 µM
How it was run: as §1

SN-38 = compound: CCc1c2c(nc3ccc(O)cc13)-c1cc3c(c(=O)n1C2)COC(=O)[C@]3(O)CC [SN-38]; details: max 0.3 µM
How it was run: as §1

AZD0156 = compound: CN(C)CCCOc1ccc(-c2ccc3ncc4c(c3c2)n(C2CCOCC2)c(=O)n4C)cn1 [AZD0156]; details: max 3 µM
How it was run: as §1

AZD4320 = compound: CN(CC[C@H](CSC1=CC=CC=C1)NC2=C(C=C(C=C2)S(=O)(=O)NC(=O)C3=CC=C(C=C3)N4CCC(CC4)[C@H](C5=CC=CC=C5C6=CC=C(C=C6)Cl)O)S(=O)(=O)C(F)(F)F)CCO [AZD4320]; details: max 1 µM
How it was run: as §1

Alisertib = compound: COc1cc(Nc2ncc3c(n2)-c2ccc(Cl)cc2C(c2c(F)cccc2OC)=NC3)ccc1C(=O)O [Alisertib]; details: max 10 µM
How it was run: as §1

Etoposide = compound: COc1cc([C@@H]2c3cc4c(cc3[C@@H](O[C@@H]3O[C@@H]5CO[C@@H](C)O[C@H]5[C@H](O)[C@H]3O)[C@H]3COC(=O)[C@H]23)OCO4)cc(OC)c1O [Etoposide]; details: max 10 µM
How it was run: as §1

Gefitinib = compound: COc1cc2ncnc(Nc3ccc(F)c(Cl)c3)c2cc1OCCCN1CCOCC1 [Gefitinib]; details: max 10 µM
How it was run: as §1

Prexasertib = compound: COc1cccc(OCCCN)c1-c1cc(Nc2cnc(C#N)cn2)n[nH]1 [Prexasertib]; details: max 1 µM
How it was run: as §1

Doxorubicin = compound: COc1cccc2c1C(=O)c1c(O)c3c(c(O)c1C2=O)C[C@@](O)(C(=O)CO)C[C@@H]3O[C@H]1C[C@H](N)[C@H](O)[C@H](C)O1 [Doxorubicin]; details: max 1 µM
How it was run: as §1

AZD5153 = compound: COc1nnc2ccc(N3CCC(c4ccc(OCCN5CCN(C)C(=O)[C@H]5C)cc4)CC3)nn12 [AZD5153]; details: max 1 µM
How it was run: as §1

Lapatinib = compound: CS(=O)(=O)CCNCc1ccc(-c2ccc3ncnc(Nc4ccc(OCc5cccc(F)c5)c(Cl)c4)c3c2)o1 [Lapatinib]; details: max 10 µM
How it was run: as §1

AZD8186 = compound: C[C@@H](Nc1cc(F)cc(F)c1)c1cc(C(=O)N(C)C)cc2c(=O)cc(N3CCOCC3)oc12 [AZD8186]; details: max 10 µM
How it was run: as §1

Crizotinib = compound: C[C@@H](Oc1cc(-c2cnn(C3CCNCC3)c2)cnc1N)c1c(Cl)ccc(F)c1Cl [Crizotinib]; details: max 10 µM
How it was run: as §1

Savolitinib = compound: C[C@@H](c1ccc2nccn2c1)n1nnc2ncc(-c3cnn(C)c3)nc21 [Savolitinib]; details: max 1 µM
How it was run: as §1

AZD6738 = compound: C[C@@H]1COCCN1C2=NC(=NC(=C2)C3(CC3)[S@](=N)(=O)C)C4=C5C=CNC5=NC=C4 [AZD6738]; details: max 10 µM
How it was run: as §1

AZD5991 = compound: Cc1c2c(nn1C)CSCc1cc(n(C)n1)CSc1cc(c3ccccc3c1)OCCCc1c(C(=O)O)n(C)c3c-2c(Cl)ccc13 [AZD5991]; details: max 1 µM
How it was run: as §1

AZD7648 = compound: Cc1cc2ncnn2cc1Nc1ncc2c(n1)n(C1CCOCC1)c(=O)n2C [AZD7648]; details: max 10 µM
How it was run: as §1

Taselisib = compound: Cc1nc(-c2cn3c(n2)-c2ccc(-c4cnn(C(C)(C)C(N)=O)c4)cc2OCC3)n(C(C)C)n1 [Taselisib]; details: max 10 µM
How it was run: as §1

Selumetinib = compound: Cn1cnc2c(F)c(Nc3ccc(Br)cc3Cl)c(C(=O)NOCCO)cc21 [Selumetinib]; details: max 10 µM
How it was run: as §1

SRA737 = compound: N#Cc1cnc(Nc2cc(NC[C@H]3CNCCO3)c(C(F)(F)F)cn2)cn1 [SRA737]; details: max 10 µM
How it was run: as §1

MK-2206 = compound: NC1(c2ccc(-c3nc4ccn5c(=O)[nH]nc5c4cc3-c3ccccc3)cc2)CCC1 [MK-2206]; details: max 10 µM
How it was run: as §1

Gemcitabine = compound: Nc1ccn([C@@H]2O[C@H](CO)[C@@H](O)C2(F)F)c(=O)n1 [Gemcitabine]; details: max 0.3 µM
How it was run: as §1

[1] = compound: O=C(Nc1ccc2[nH]nc(-c3ccncc3)c2c1)[C@@H]1CCN(CC(=O)N2CCN(c3ccc(-c4ncccn4)cc3)CC2)C1; details: max 5 µM
How it was run: as §1

Olaparib = compound: O=C(c1cc(Cc2n[nH]c(=O)c3ccccc23)ccc1F)N1CCN(C(=O)C2CC2)CC1 [Olaparib]; details: max 10 µM
How it was run: as §1

5-Fluorouracil = compound: O=c1[nH]cc(F)c(=O)[nH]1 [5-Fluorouracil]; details: max 20 µM
How it was run: as §1

With SF539 (Glioblastoma) the “IC50, cell viability 72 h” value (Carboplatin) was greater than 10000 nM, the “IC50, cell viability 72 h” value (AZD5363) was 3270 nM and the “IC50, cell viability 72 h” value (AZD1775) was 185 nM. The “IC50, cell viability 72 h” value (Trametinib) was greater than 1000 nM, the “IC50, cell viability 72 h” value (Paclitaxel) was 7.53 nM and the “IC50, cell viability 72 h” value (Palbociclib) was greater than 10000 nM. For the same cell line, the “IC50, cell viability 72 h” value (AZD1390) was greater than 300 nM, the “IC50, cell viability 72 h” value (Venetoclax) was greater than 1000 nM and the “IC50, cell viability 72 h” value (Dasatinib) was 1630 nM. For the same cell line, the “IC50, cell viability 72 h” value (SG3199) was greater than 1 nM, the “IC50, cell viability 72 h” value (AZD2811) was greater than 1000 nM and the “IC50, cell viability 72 h” value (SN-38) was 18.9 nM. For the same cell line, the “IC50, cell viability 72 h” value (AZD0156) was greater than 3000 nM, the “IC50, cell viability 72 h” value (AZD4320) was greater than 1000 nM and the “IC50, cell viability 72 h” value (Alisertib) was 4930 nM. For the same cell line, the “IC50, cell viability 72 h” value (Etoposide) was 2140 nM, the “IC50, cell viability 72 h” value (Gefitinib) was greater than 10000 nM and the “IC50, cell viability 72 h” value (Prexasertib) was 8.82 nM. The “IC50, cell viability 72 h” value (Doxorubicin) was 351 nM, the “IC50, cell viability 72 h” value (AZD5153) was 370 nM and the “IC50, cell viability 72 h” value (Lapatinib) was greater than 10000 nM. The “IC50, cell viability 72 h” value (AZD8186) was greater than 10000 nM, the “IC50, cell viability 72 h” value (Crizotinib) was 9820 nM and the “IC50, cell viability 72 h” value (Savolitinib) was greater than 1000 nM. The “IC50, cell viability 72 h” value (AZD6738) was 2050 nM, the “IC50, cell viability 72 h” value (AZD5991) was greater than 1000 nM and the “IC50, cell viability 72 h” value (AZD7648) was greater than 10000 nM. The “IC50, cell viability 72 h” value (Taselisib) was 3750 nM, the “IC50, cell viability 72 h” value (Selumetinib) was greater than 10000 nM and the “IC50, cell viability 72 h” value (SRA737) was 1930 nM. For the same cell line, the “IC50, cell viability 72 h” value (MK-2206) was 9370 nM, the “IC50, cell viability 72 h” value (Gemcitabine) was 23.9 nM and the “IC50, cell viability 72 h” value [1] was 3220 nM. For the same cell line, the “IC50, cell viability 72 h” value (Olaparib) was greater than 10000 nM and the “IC50, cell viability 72 h” value (5-Fluorouracil) was 14500 nM.

In the case of REH (B-Lymphoblastic Leukemia), the “IC50, cell viability 72 h” value (Carboplatin) was greater than 10000 nM, the “IC50, cell viability 72 h” value (AZD5363) was greater than 10000 nM and the “IC50, cell viability 72 h” value (AZD1775) was 727 nM. The “IC50, cell viability 72 h” value (Trametinib) was greater than 1000 nM, the “IC50, cell viability 72 h” value (Paclitaxel) was 5.44 nM and the “IC50, cell viability 72 h” value (Palbociclib) was 6850 nM. The “IC50, cell viability 72 h” value (AZD1390) was greater than 300 nM, the “IC50, cell viability 72 h” value (Venetoclax) was 211 nM and the “IC50, cell viability 72 h” value (Dasatinib) was greater than 2000 nM. The “IC50, cell viability 72 h” value (SG3199) was greater than 1 nM, the “IC50, cell viability 72 h” value (AZD2811) was 218 nM and the “IC50, cell viability 72 h” value (SN-38) was 4.21 nM. The “IC50, cell viability 72 h” value (AZD0156) was greater than 3000 nM, the “IC50, cell viability 72 h” value (AZD4320) was 56.4 nM and the “IC50, cell viability 72 h” value (Alisertib) was 1620 nM. For the same cell line, the “IC50, cell viability 72 h” value (Etoposide) was 834 nM, the “IC50, cell viability 72 h” value (Gefitinib) was greater than 10000 nM and the “IC50, cell viability 72 h” value (Prexasertib) was 24.8 nM. The “IC50, cell viability 72 h” value (Doxorubicin) was 94.9 nM, the “IC50, cell viability 72 h” value (AZD5153) was 834 nM and the “IC50, cell viability 72 h” value (Lapatinib) was greater than 10000 nM. The “IC50, cell viability 72 h” value (AZD8186) was 9640 nM, the “IC50, cell viability 72 h” value (Crizotinib) was 4210 nM and the “IC50, cell viability 72 h” value (Savolitinib) was greater than 1000 nM. The “IC50, cell viability 72 h” value (AZD6738) was 5790 nM, the “IC50, cell viability 72 h” value (AZD5991) was 723 nM and the “IC50, cell viability 72 h” value (AZD7648) was greater than 10000 nM. The “IC50, cell viability 72 h” value (Taselisib) was 3310 nM, the “IC50, cell viability 72 h” value (Selumetinib) was greater than 10000 nM and the “IC50, cell viability 72 h” value (SRA737) was greater than 10000 nM. The “IC50, cell viability 72 h” value (MK-2206) was 4580 nM, the “IC50, cell viability 72 h” value (Gemcitabine) was 15.6 nM and the “IC50, cell viability 72 h” value [1] was greater than 5000 nM. For the same cell line, the “IC50, cell viability 72 h” value (Olaparib) was greater than 10000 nM and the “IC50, cell viability 72 h” value (5-Fluorouracil) was greater than 20000 nM.

Reference: the supplement of paper PMC11061612
